In patent EP1900728A1 (Genecare Research Institute Co., Ltd, priority 2005, dated 2006):
Like-named read-outs stand apart in the source and are kept apart here.

Experiments:
[1] = biological target: T1, IκBα ubiquitinating enzyme (SCF complex: ROC1, Cullin1, Skp1, His-TrCP1; with E1, UbcH5b) (Homo sapiens, UniProt P62877+P63208+Q13616+Q9Y297); assay: Measurement of ubiquitinating enzyme activity (IκBα ubiquitination, time-resolved fluorescence with Eu(K)-labeled ubiquitin and XL665-labeled anti-GST antibody); assay type: biochemical
T1 construct: His (polyhistidine); made in house; host or cells: insect cells (baculovirus) for the SCF complex and His-E1; E. coli for His-UBCH5b
Procedure, shortened: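 Human SCF complex with E1 and UbcH5b ubiquitinated GST-IκBα pre-phosphorylated by IKKβ (2 mM ATP, pH 7.4, 1 h, RT), with Eu(K)-ubiquitin, 30 min RT. Stopped with EDTA, XL665 anti-GST added for 2 h; 665/620 nm TR-FRET ratio. % inhibition versus no-compound control and no-SCF blank gave IC50.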

[2] = system: ICAM-1 expression in HT-29 cells; assay: Measurement of ICAM-1 expressing activity (TNFα-induced ICAM-1 expression, cell ELISA); assay type: cell-based; details: Homo sapiens, Table 6, cell activity inhibition test by method (3), read-out: EVALUATION (IC50 class, inhibition of cell activity)
Procedure: Method 2: Measurement of ICAM-1 expressing activity
2.0 x 10^4 HT-29 cells (ATCC) were plated onto a 96-well plate, and the cells were cultured for 48 hours using a McCoy' 5A medium (GIBCO) containing 10% inactivated fetal calf serum. The culture medium was removed, a culture medium containing a compound to be evaluated (final DMSO concentration of 0.5%) was added, and this was incubated at 37°C for 30 minutes. Thirty ng/mL of human TNFα (GIBCO) was added, and this was incubated at 37°C for 4 hours. After washing once with a washing solution (PBS containing 0.05% Tween 20), ice-cooled methanol was added, and this was left on ice for 10 minutes and then fixed. After removing methanol, PBS containing 1% BSA was added, and blocking was performed by letting this stand at room temperature for 30 minutes. Anti-ICAM-1 antibody (Santa Cruz Biotechnology) was added, and this was left to stand at room temperature for 1 hour. After washing with the washing solution, POD-labeled secondary antibody was added, and this was left to stand at room temperature for 30 minutes. This was washed, 100 µL of 100 mM citric acid buffer (pH4.2) containing 1 mM TMBZ and 0.03% H2O2 was added, and this was reacted at room temperature for 15 minutes. The reaction was terminated with 100 µL of 2 N H2SO4, and the absorbance at 450 nm was measured using ARVO-HTS (Perkin Elmer).
When cells are stimulated with TNFα, IκBα is degraded after ubiquitination resulting in the activation of NFκB and the promotion of the expression of adhesion factor ICAM-1. Therefore, the suppression of ICAM-1 expression described above serves as an indicator to determine the effectiveness of the compound in the cells.

[3] = enzyme activity inhibition test, method (1), Table 5, read-out: EVALUATION

T1 sequence (Q9Y297 whole entry): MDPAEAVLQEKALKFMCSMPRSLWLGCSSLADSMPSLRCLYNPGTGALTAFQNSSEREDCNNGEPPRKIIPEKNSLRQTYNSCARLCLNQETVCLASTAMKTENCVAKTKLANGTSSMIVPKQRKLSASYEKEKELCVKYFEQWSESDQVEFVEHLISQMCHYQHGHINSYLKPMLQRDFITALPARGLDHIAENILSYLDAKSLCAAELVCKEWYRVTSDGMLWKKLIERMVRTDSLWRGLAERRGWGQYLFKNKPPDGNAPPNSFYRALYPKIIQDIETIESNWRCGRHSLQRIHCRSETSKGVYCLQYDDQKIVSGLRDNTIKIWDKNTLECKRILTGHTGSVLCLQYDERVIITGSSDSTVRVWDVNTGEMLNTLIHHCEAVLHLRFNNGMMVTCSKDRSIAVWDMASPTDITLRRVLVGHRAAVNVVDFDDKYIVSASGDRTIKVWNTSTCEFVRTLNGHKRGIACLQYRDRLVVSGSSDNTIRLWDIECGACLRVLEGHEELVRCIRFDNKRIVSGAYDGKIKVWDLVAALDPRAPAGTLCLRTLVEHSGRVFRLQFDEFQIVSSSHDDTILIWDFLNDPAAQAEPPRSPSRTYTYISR
T1 sequence (Q13616 whole entry): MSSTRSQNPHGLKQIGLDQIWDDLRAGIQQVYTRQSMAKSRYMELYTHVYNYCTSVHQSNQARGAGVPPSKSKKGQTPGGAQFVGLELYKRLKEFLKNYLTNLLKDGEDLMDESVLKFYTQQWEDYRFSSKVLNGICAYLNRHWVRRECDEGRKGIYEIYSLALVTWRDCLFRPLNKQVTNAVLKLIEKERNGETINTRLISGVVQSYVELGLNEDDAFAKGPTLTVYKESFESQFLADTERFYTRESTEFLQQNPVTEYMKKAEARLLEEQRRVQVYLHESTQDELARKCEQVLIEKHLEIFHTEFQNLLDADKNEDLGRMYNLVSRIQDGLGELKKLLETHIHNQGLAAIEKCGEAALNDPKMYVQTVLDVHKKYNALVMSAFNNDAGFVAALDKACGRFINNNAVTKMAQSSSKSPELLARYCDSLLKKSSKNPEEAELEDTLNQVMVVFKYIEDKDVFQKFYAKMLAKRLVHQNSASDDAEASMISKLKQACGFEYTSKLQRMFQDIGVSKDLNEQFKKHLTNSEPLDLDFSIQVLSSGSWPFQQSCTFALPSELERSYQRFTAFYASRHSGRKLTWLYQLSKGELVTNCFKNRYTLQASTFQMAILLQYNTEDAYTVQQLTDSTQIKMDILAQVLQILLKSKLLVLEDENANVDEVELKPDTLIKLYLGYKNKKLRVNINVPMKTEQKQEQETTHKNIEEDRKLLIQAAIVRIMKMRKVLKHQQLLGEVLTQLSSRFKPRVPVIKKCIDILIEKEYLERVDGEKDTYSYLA
T1 sequence (P63208 whole entry): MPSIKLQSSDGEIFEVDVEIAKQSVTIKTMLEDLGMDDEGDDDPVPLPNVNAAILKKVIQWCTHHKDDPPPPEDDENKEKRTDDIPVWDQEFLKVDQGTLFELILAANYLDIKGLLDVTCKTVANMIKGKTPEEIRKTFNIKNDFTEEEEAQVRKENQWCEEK
T1 sequence (P62877 whole entry): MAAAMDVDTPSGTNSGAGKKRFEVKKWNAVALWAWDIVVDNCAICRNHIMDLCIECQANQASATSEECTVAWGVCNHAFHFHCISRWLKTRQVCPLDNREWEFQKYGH

Structure (SMILES)	IC50 [1, 3]	IC50 [2]	IC50 [1]
O=C(O)c1cccc(N2N=C(Cc3ccccc3)/C(=C/c3ccc(-c4ccccc4F)o3)C2=O)c1 [Compound 519]	10 to 20 µM	< 10 µM	–
CC1=NN(c2ccc(S(N)(=O)=O)cc2)C(=O)/C1=C\c1ccc(C(C)(C)C)cc1 [Compound 115]	< 10 µM	10 to 20 µM	–
CC1=NN(c2ccc(S(N)(=O)=O)cc2)C(=O)/C1=C\c1ccc2ccccc2c1 [Compound 116]	10 to 20 µM	10 to 20 µM	–
CN1CCN(c2ccc(/C=C3\C(=O)N(c4ccc(C(=O)O)cc4)N=C3Cc3ccccc3)cc2)CC1 [Compound 274]	10 to 20 µM	< 40 µM	–
CC(=O)N1CCN(c2ccc(/C=C3\C(=O)N(c4cccc(C(=O)O)c4)N=C3C)cc2)CC1 [Compound 442]	< 10 µM	< 40 µM	–
COC(=O)c1ccc(COc2ccc(C=C3C(=O)N(c4ccc(C(=O)O)cc4)N=C3C)cc2OC)cc1 [Compound 347]	–	10 to 20 µM	< 10 µM
CC1=NN(c2cccc(C(=O)O)c2)C(=O)/C1=C\c1ccc(N2CCN(C(=O)c3ccccc3)CC2)cc1 [Compound 440]	< 10 µM	10 to 20 µM	–
COc1ccccc1-c1ccc(/C=C2\C(=O)N(c3ccc(C(=O)O)cc3)N=C2c2ccoc2)o1 [Compound 483]	< 10 µM	10 to 20 µM	–
CC1=NN(c2ccc(C(=O)O)cc2)C(=O)/C1=C\c1ccc2c(ccn2Cc2csc(C)n2)c1 [Compound 500]	< 10 µM	< 40 µM	–
CC1=NN(c2ccc(S(N)(=O)=O)cc2)C(=O)C1=Cc1ccc(OCC(=O)Nc2ccccc2)cc1 [Compound 210]	–	10 to 20 µM	< 10 µM
CC1=NN(c2ccc(S(N)(=O)=O)cc2)C(=O)C1=Cc1ccc(OCc2ccc([N+](=O)[O-])cc2)cc1 [Compound 216]	–	< 40 µM	< 10 µM
O=C(O)c1ccc(N2N=C(C3CC3)/C(=C/c3ccc(CO)o3)C2=O)cc1 [Compound 316]	< 10 µM	< 10 µM	–
COCC1=NN(Cc2cccc(O)c2)C(=O)/C1=C\c1ccc(-c2ccccc2F)o1 [Compound 190]	10 to 20 µM	10 to 20 µM	–
CCCCC1=NN(c2ccc(C(=O)O)cc2)C(=O)/C1=C\c1ccc(N2CCN(C)CC2)cc1 [Compound 340]	< 10 µM	10 to 20 µM	–
CC1=NN(c2ccc(S(N)(=O)=O)cc2)C(=O)/C1=C\c1ccc(N2CCCCC2)cc1 [Compound 126]	10 to 20 µM	10 to 20 µM	–
CC1=NN(c2cccc(C(=O)N3CCN(c4ccc(O)cc4)CC3)c2)C(=O)/C1=C\c1ccc2[nH]ccc2c1 [Compound 375]	< 10 µM	< 40 µM	–
COCC1=NN(c2ccccc2)C(=O)/C1=C\c1ccc(-c2ccccc2F)o1 [Compound 6]	10 to 20 µM	< 40 µM	–
Cn1cc(-c2ccc(/C=C3\C(=O)N(c4cccc(C(=O)O)c4)N=C3c3ccoc3)o2)cn1 [Compound 491]	< 10 µM	10 to 20 µM	–
O=C(O)c1ccc(N2N=C(Cc3ccccc3)/C(=C/c3ccc(CO)o3)C2=O)cc1 [Compound 268]	10 to 20 µM	< 40 µM	–

Structure (SMILES)	IC50 [1, 3]	IC50 [2]	IC50 [1]
COCC1=NN(c2ccc(C(=O)O)cc2)C(=O)/C1=C\c1ccc(-n2ccnc2)cc1 [Compound 238]	< 10 µM	< 40 µM	–
CCCCC1=NN(c2ccc(C(=O)O)cc2)C(=O)/C1=C\c1ccc(N2CCN(c3ccccc3)CC2)cc1 [Compound 434]	< 10 µM	< 40 µM	–
COc1ccc(C2=NN(c3ccc(C(=O)O)cc3)C(=O)C2=Cc2ccc3ccccc3c2)cc1OC [Compound 333]	–	10 to 20 µM	10 to 20 µM
O=C(O)c1ccc(N2N=C(Cc3ccccc3)/C(=C/c3ccc4c(c3)OCCO4)C2=O)cc1 [Compound 272]	10 to 20 µM	< 10 µM	–
CCCCC1=NN(c2ccc(C(=O)O)cc2)C(=O)/C1=C\c1cccc2nccnc12 [Compound 297]	10 to 20 µM	10 to 20 µM	–
COc1ccc(C2=NN(c3ccc(C(=O)O)cc3)C(=O)C2=Cc2ccc(O)c(OC)c2)cc1 [Compound 324]	–	< 10 µM	< 10 µM
CC1=NN(c2cccc(S(N)(=O)=O)c2)C(=O)/C1=C\c1ccc2[nH]ccc2c1 [Compound 134]	< 10 µM	< 40 µM	–
COc1cc(C=C2C(=O)N(Cc3ccccc3)N=C2C)ccc1O [Compound 201]	–	10 to 20 µM	< 10 µM
Cn1cc(-c2ccc(/C=C3\C(=O)N(Cc4cccc(O)c4)N=C3c3ccoc3)o2)cn1 [Compound 188]	10 to 20 µM	< 40 µM	–
CC1=NN(c2cccc(C(=O)O)c2)C(=O)C1=Cc1cc2ccccc2o1 [Compound 428]	–	< 40 µM	10 to 20 µM
CC1=NN(c2ccc(C(=O)O)cc2)C(=O)/C1=C\c1ccc2c(ccn2CC2CCCCC2)c1 [Compound 498]	< 10 µM	< 40 µM	–
CC1=NN(c2ccc(S(N)(=O)=O)cc2)C(=O)/C1=C\c1ccc(Oc2ccccc2)cc1 [Compound 213]	10 to 20 µM	< 10 µM	–
CC1=NN(c2ccc(C(=O)N3CCCC3CO)cc2)C(=O)/C1=C\c1ccc2c(c1)OCCO2 (centres unmarked) [Compound 410]	< 10 µM	10 to 20 µM	–
COc1cccc(-c2ccc(/C=C3\C(=O)N(c4ccc(C(=O)O)cc4)N=C3C)o2)c1 [Compound 501]	< 10 µM	< 10 µM	–
CC1=NN(c2ccc(S(N)(=O)=O)cc2)C(=O)C1=Cc1ccc(O)cc1 [Compound 218]	10 to 20 µM	< 40 µM	–
CC1=NN(c2ccc(C(=O)O)cc2)C(=O)C1=Cc1ccc2[nH]ccc2c1 [Compound 349]	–	< 40 µM	< 10 µM
CCCCC1=NN(c2ccccc2)C(=O)/C1=C\c1ccc2c(c1)OCCO2 [Compound 98]	10 to 20 µM	–	–
CC1=NN(c2cccc(C(=O)NCC3CC3)c2)C(=O)/C1=C\c1ccc2c(c1)OCCO2 [Compound 404]	< 40 µM	–	–
CC1=NN(c2ccccc2)C(=O)/C1=C\c1ccc(OCC(=O)N(C)C)cc1 [Compound 206]	< 40 µM	–	–

Structure (SMILES)	IC50 [1, 3]	IC50 [2]	IC50 [1]
CC1=NN(c2cccc(C(=O)O)c2)C(=O)/C1=C\c1ccc2cc[nH]c2c1 [Compound 381]	< 10 µM	–	–
CC1=NN(c2cccc(S(N)(=O)=O)c2)C(=O)/C1=C\c1ccc(N2CCC(CO)CC2)cc1 [Compound 173]	< 40 µM	–	–
CN1CCN(c2ccc(/C=C3\C(=O)N(c4ccccc4)N=C3C3CC3)cc2)CC1 [Compound 78]	10 to 20 µM	–	–
O=C(O)c1ccc(N2N=C(c3ccccn3)/C(=C/c3ccc(-n4cccn4)cc3)C2=O)cc1 [Compound 294]	< 40 µM	–	–
CC1=NN(c2cccc(S(N)(=O)=O)c2)C(=O)/C1=C\c1ccc(N2CCNCC2)cc1 [Compound 184]	10 to 20 µM	–	–
COCC1=NN(c2ccc(C(=O)O)cc2)C(=O)C1=Cc1ccc(N2CCC(O)CC2)s1 [Compound 240]	< 40 µM	–	–
CC1=NN(c2cccc(C(=O)O)c2)C(=O)/C1=C\c1ccc(N2CCC(N3CCCC3)CC2)cc1 [Compound 435]	10 to 20 µM	–	–
O=C(O)c1ccc(N2N=C(c3cccnc3)C(=Cc3ccc4ccccc4c3)C2=O)cc1 [Compound 345]	10 to 20 µM	–	–
CC1=NN(c2cccc(C(=O)N3CCC(CO)CC3)c2)C(=O)/C1=C\c1ccc2[nH]ccc2c1 [Compound 371]	< 10 µM	–	–
O=C(O)c1ccc(N2N=C(c3ccncc3)C(=Cc3ccc4c(c3)OCCO4)C2=O)cc1 [Compound 288]	10 to 20 µM	–	–
COCC1=NN(c2ccc(C(=O)O)cc2)C(=O)/C1=C\c1ccc(N2CCN(C)CC2)cc1 [Compound 241]	< 40 µM	–	–
CC1=NN(c2cccc(C(=O)O)c2)C(=O)/C1=C\c1cccc2[nH]ccc12 [Compound 355]	< 10 µM	–	–
CC1=NN(c2cccc(C(=O)O)c2)C(=O)/C1=C\c1ccc(N2CCC(C(=O)O)CC2)cc1 [Compound 424]	< 10 µM	–	–
CC(=O)OCc1ccc(/C=C2\C(=O)N(c3ccc(C(=O)O)cc3)N=C2C)o1 [Compound 524]	< 40 µM	–	–
CC1=NN(c2ccc(C(=O)N3CCC(CO)CC3)cc2)C(=O)/C1=C\c1ccc2[nH]ccc2c1 [Compound 361]	< 10 µM	–	–
COc1cc(/C=C2\C(=O)N(c3ccccc3)N=C2C2CC2)ccc1OCc1ccccc1 [Compound 71]	< 10 µM	–	–
COc1ncccc1/C=C1\C(=O)N(c2cccc(C(=O)O)c2)N=C1C [Compound 506]	< 40 µM	–	–
CC1=NN(c2cccc(C(=O)O)c2)C(=O)/C1=C\c1ccc(N2CCN(C(=O)c3ccoc3)CC2)cc1 [Compound 444]	< 10 µM	–	–
COC(=O)N1CCN(c2ccc(C=C3C(=O)N(c4ccc(C(=O)O)cc4)N=C3c3ccncc3)cc2)CC1 [Compound 344]	< 40 µM	–	–
